Laboratory results taken from PMC2649375 (Journal of molecular neuroscience : MN, 2006).
Residue numbers refer to the chain shown, from its start.

What was measured:
[1] = molecular target: T1, P391R mutant 5-HT3 receptor (Mus musculus, UniProt P23979, P402R); details: maximum number of binding sites, n = 5
T1 sequence (P23979 24-483 isoform P23979-2 P396R limits assumed): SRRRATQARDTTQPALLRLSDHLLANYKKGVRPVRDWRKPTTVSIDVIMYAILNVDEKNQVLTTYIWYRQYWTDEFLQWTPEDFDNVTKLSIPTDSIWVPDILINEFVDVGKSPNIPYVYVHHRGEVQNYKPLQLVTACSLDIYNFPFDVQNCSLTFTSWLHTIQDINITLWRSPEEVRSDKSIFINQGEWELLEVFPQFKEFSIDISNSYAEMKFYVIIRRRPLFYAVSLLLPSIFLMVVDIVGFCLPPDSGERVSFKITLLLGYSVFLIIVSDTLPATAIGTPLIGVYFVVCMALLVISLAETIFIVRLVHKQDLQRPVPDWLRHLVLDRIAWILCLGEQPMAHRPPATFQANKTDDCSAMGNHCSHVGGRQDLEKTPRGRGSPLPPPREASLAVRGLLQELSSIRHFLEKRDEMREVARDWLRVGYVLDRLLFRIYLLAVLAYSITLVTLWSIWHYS

[2] = molecular target: T2, R344H mutant 5-HT3 receptor (Mus musculus, UniProt P23979, R349H); details: maximum number of binding sites, n = 9
T2 sequence (P23979 24-483 isoform P23979-2 R349H limits assumed): T1 sequence (P23979 24-483 isoform P23979-2 P396R limits assumed) with R326H, R373P

wild-type 5-HT3 receptor = molecular target: T3, wild-type 5-HT3 receptor (Mus musculus, UniProt P23979); details: maximum number of binding sites, n = 5
T3 sequence (P23979 24-483 isoform P23979-2 limits assumed): T1 sequence (P23979 24-483 isoform P23979-2 P396R limits assumed) with R373P

- Bmax [1]: 353 ± 113 fmol/mg
- Bmax [2]: 853 ± 232 fmol/mg
- Bmax (wild-type 5-HT3 receptor): 567 ± 149 fmol/mg
SMILES: CN1C2CCCC1CC(NC(=O)c1nn(C)c3ccccc13)C2 (stereo not drawn) [[^3H]Granisetron]
